Experiments:
[1] = molecular target: 5-hydroxytryptamine receptor 3A (Homo sapiens, UniProt P46098); experiment: GPCRScan assay: inhibition of 5-HT3; design: radioligand conc. used [nm] 1.0 – 2.0, parental cells HEKT
[2] = GPCRScan assay: inhibition of GABA/PBR; design: species or system Rattus norvegicus; radioligand conc. used [nm] 0.3 – 2.0, parental cells brain tissue
[3] = system: Tyrosine-protein kinase ABL1 (Homo sapiens), P00519 [F317L]; settings: Compound concentration 1000.0 nM
[4] = molecular target: Tyrosine-protein kinase ABL1 (Homo sapiens) (UniProt P00519); settings: Compound concentration 1000.0 nM
[5] = molecular target: Activin receptor type-1 (Homo sapiens) (UniProt Q04771); settings: Compound concentration 1000.0 nM
[6] = molecular target: 5'-AMP-activated protein kinase catalytic subunit alpha-2 (Homo sapiens) (UniProt P54646); settings: Compound concentration 1000.0 nM
[7] = molecular target: Mitogen-activated protein kinase kinase kinase 5 (Homo sapiens) (UniProt Q99683); settings: Compound concentration 1000.0 nM
[8] = molecular target: Aurora kinase B (Homo sapiens) (UniProt Q96GD4); settings: Compound concentration 1000.0 nM
[9] = molecular target: Tyrosine-protein kinase receptor UFO (Homo sapiens) (UniProt P30530); settings: Compound concentration 1000.0 nM
[10] = molecular target: Cyclin-dependent kinase 13 (Homo sapiens) (UniProt Q14004); settings: Compound concentration 1000.0 nM
[11] = molecular target: Cyclin-dependent kinase 2 (Homo sapiens) (UniProt P24941); settings: Compound concentration 1000.0 nM
[12] = molecular target: Discoidin domain-containing receptor 2 (Homo sapiens) (UniProt Q16832); settings: Compound concentration 1000.0 nM
[13] = molecular target: Serine/threonine-protein kinase 17A (Homo sapiens) (UniProt Q9UEE5); settings: Compound concentration 1000.0 nM
[14] = system: Epidermal growth factor receptor (Homo sapiens), P00533 [L858R]; settings: Compound concentration 1000.0 nM
[15] = system: Epidermal growth factor receptor (Homo sapiens), P00533 [T790M]; settings: Compound concentration 1000.0 nM
[16] = molecular target: Ephrin type-A receptor 3 (Homo sapiens) (UniProt P29320); settings: Compound concentration 1000.0 nM
[17] = molecular target: Ephrin type-A receptor 7 (Homo sapiens) (UniProt Q15375); settings: Compound concentration 1000.0 nM
[18] = molecular target: Receptor tyrosine-protein kinase erbB-3 (Homo sapiens) (UniProt P21860); settings: Compound concentration 1000.0 nM
[19] = molecular target: Fibroblast growth factor receptor 4 (Homo sapiens) (UniProt P22455); settings: Compound concentration 1000.0 nM
[20] = system: Receptor-type tyrosine-protein kinase FLT3 (Homo sapiens), P36888 [R834Q]; settings: Compound concentration 1000.0 nM
[21] = molecular target: Rhodopsin kinase GRK1 (Homo sapiens) (UniProt Q15835); settings: Compound concentration 1000.0 nM
[22] = molecular target: G protein-coupled receptor kinase 4 (Homo sapiens) (UniProt P32298); settings: Compound concentration 1000.0 nM
[23] = molecular target: Mitogen-activated protein kinase 8 (Homo sapiens) (UniProt P45983); settings: Compound concentration 1000.0 nM
[24] = molecular target: Mast/stem cell growth factor receptor Kit (Homo sapiens) (UniProt P10721); settings: Compound concentration 1000.0 nM
[25] = molecular target: Mitogen-activated protein kinase kinase kinase kinase 5 (Homo sapiens) (UniProt Q9Y4K4); settings: Compound concentration 1000.0 nM
[26] = molecular target: Dual specificity mitogen-activated protein kinase kinase 2 (Homo sapiens) (UniProt P36507); settings: Compound concentration 1000.0 nM
[27] = system: Hepatocyte growth factor receptor (Homo sapiens), P08581 [Y1235D]; settings: Compound concentration 1000.0 nM
[28] = molecular target: Macrophage-stimulating protein receptor (Homo sapiens) (UniProt Q04912); settings: Compound concentration 1000.0 nM
[29] = molecular target: Serine/threonine-protein kinase 3 (Homo sapiens) (UniProt Q13188); settings: Compound concentration 1000.0 nM
[30] = molecular target: Serine/threonine-protein kinase Nek3 (Homo sapiens) (UniProt P51956); settings: Compound concentration 1000.0 nM
[31] = molecular target: Serine/threonine-protein kinase Nek7 (Homo sapiens) (UniProt Q8TDX7); settings: Compound concentration 1000.0 nM
[32] = molecular target: Serine/threonine-protein kinase PAK 2 (Homo sapiens) (UniProt Q13177); settings: Compound concentration 1000.0 nM
[33] = molecular target: Serine/threonine-protein kinase PAK 3 (Homo sapiens) (UniProt O75914); settings: Compound concentration 1000.0 nM
[34] = molecular target: Platelet-derived growth factor receptor beta (Homo sapiens) (UniProt P09619); settings: Compound concentration 1000.0 nM
[35] = molecular target: cAMP-dependent protein kinase catalytic subunit alpha (Homo sapiens) (UniProt P17612); settings: Compound concentration 1000.0 nM
[36] = molecular target: Serine/threonine-protein kinase PknB (Mycobacterium tuberculosis) (UniProt P9WI81); settings: Compound concentration 1000.0 nM
[37] = molecular target: Protein-tyrosine kinase 2-beta (Homo sapiens) (UniProt Q14289); settings: Compound concentration 1000.0 nM
[38] = molecular target: STE20-like serine/threonine-protein kinase (Homo sapiens) (UniProt Q9H2G2); settings: Compound concentration 1000.0 nM
[39] = molecular target: Serine/threonine-protein kinase 16 (Homo sapiens) (UniProt O75716); settings: Compound concentration 1000.0 nM
[40] = molecular target: Serine/threonine-protein kinase tousled-like 1 (Homo sapiens) (UniProt Q9UKI8); settings: Compound concentration 1000.0 nM
[41] = molecular target: NT-3 growth factor receptor (Homo sapiens) (UniProt Q16288); settings: Compound concentration 1000.0 nM
[42] = molecular target: 5-hydroxytryptamine receptor 2B (Homo sapiens) (UniProt P41595); settings: Compound concentration 10.0 uM
[43] = molecular target: D(1A) dopamine receptor (Homo sapiens) (UniProt P21728); settings: Compound concentration 10.0 uM
[44] = molecular target: GABA-A receptor; anion channel (Rattus norvegicus) (UniProt O09028+P15431+P18506+P18508+P19969+P20236+P23574+P23576+P28471+P28473+P30191+P62813+P63079+P63138+Q91ZM7+Q9ES14); settings: Compound concentration 10.0 uM

Sequence of 5-hydroxytryptamine receptor 3A (P46098 whole entry): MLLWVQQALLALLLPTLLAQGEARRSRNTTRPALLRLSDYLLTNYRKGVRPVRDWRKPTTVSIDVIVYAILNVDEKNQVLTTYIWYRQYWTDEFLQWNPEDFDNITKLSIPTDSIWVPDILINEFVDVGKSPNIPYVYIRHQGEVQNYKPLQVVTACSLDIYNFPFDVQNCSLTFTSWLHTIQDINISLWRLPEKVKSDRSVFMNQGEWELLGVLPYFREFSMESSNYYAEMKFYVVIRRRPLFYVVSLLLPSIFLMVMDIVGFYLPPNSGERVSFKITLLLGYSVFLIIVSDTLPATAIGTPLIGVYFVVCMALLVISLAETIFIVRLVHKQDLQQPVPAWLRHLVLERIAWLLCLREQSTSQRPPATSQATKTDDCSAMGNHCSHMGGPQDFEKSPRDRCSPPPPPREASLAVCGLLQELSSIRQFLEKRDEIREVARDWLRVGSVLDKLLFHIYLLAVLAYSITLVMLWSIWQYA
Sequence of Rhodopsin kinase GRK1 (Homo sapiens) (Q15835 whole entry): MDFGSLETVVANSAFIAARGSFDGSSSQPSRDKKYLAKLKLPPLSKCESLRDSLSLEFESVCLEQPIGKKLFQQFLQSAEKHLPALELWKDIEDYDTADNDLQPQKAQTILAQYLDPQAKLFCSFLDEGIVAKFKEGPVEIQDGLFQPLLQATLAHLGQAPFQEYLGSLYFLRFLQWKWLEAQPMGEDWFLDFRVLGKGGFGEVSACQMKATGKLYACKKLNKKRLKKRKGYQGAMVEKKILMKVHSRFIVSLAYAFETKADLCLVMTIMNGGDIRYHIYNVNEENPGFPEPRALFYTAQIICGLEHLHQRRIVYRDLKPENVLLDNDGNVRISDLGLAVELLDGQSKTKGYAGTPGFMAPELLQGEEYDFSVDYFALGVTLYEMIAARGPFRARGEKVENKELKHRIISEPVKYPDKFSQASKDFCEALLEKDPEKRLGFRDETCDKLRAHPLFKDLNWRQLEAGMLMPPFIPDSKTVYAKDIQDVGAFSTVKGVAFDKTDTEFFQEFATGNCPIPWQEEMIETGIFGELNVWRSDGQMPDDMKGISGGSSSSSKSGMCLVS
Sequence of 5'-AMP-activated protein kinase catalytic subunit alpha-2 (Homo sapiens) (P54646 whole entry, looked up): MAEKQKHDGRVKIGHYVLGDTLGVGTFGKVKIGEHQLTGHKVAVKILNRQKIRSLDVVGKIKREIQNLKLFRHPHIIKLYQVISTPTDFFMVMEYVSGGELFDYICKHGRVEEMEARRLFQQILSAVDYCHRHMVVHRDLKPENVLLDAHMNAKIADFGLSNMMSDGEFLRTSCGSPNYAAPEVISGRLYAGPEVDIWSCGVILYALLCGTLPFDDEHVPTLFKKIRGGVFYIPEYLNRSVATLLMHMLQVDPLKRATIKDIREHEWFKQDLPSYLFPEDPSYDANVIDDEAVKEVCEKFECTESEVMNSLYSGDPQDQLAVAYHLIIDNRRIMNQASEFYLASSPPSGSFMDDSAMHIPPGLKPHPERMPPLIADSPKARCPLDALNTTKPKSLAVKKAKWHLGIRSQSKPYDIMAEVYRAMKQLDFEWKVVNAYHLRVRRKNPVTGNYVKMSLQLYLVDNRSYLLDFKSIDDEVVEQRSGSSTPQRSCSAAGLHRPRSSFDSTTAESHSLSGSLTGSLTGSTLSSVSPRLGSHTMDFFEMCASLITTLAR
Sequence of Tyrosine-protein kinase ABL1 (Homo sapiens) (P00519 whole entry): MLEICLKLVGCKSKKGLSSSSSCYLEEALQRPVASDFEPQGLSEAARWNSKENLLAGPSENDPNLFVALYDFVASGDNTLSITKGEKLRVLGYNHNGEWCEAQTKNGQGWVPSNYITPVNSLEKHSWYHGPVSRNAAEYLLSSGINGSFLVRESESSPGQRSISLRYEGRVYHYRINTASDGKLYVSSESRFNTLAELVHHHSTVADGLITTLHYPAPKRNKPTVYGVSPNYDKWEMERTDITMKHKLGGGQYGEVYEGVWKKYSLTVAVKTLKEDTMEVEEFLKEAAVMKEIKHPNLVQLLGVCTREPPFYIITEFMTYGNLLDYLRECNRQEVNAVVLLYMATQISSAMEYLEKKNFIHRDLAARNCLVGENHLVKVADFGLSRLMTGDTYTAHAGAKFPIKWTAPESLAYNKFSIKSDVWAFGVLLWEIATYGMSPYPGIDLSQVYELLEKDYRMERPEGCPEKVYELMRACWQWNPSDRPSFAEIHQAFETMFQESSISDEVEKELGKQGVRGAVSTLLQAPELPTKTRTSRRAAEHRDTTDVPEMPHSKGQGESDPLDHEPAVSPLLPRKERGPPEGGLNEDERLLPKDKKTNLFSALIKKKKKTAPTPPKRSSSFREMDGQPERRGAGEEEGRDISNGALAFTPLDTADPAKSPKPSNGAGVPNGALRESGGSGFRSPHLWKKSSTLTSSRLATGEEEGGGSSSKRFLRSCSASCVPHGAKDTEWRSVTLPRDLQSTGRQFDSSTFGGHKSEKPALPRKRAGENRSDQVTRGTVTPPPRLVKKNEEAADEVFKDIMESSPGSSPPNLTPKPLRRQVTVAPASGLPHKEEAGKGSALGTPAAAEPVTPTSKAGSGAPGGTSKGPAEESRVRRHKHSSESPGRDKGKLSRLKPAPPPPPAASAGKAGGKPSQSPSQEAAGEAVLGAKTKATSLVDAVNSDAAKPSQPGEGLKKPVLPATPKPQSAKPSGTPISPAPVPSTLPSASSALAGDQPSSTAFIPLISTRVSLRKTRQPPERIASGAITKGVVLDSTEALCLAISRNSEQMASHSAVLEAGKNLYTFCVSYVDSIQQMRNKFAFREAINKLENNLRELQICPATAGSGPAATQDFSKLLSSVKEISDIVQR
Sequence of Serine/threonine-protein kinase PknB (Mycobacterium tuberculosis) (P9WI81 whole entry): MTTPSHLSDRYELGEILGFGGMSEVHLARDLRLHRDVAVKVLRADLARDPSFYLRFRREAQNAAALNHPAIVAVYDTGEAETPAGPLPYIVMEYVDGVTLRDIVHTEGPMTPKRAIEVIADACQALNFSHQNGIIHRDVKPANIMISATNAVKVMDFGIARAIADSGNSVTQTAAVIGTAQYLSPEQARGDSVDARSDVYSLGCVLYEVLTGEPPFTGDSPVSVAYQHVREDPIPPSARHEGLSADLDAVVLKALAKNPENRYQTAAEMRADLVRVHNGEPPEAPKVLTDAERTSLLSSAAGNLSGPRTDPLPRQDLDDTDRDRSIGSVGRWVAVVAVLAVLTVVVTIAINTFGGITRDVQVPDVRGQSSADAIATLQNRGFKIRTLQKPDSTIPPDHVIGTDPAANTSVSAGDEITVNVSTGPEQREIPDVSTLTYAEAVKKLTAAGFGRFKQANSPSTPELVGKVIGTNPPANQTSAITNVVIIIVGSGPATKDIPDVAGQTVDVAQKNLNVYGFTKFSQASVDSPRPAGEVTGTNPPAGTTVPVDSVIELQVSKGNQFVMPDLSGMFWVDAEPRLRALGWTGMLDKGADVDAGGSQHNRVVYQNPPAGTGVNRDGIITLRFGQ
Sequence of Dual specificity mitogen-activated protein kinase kinase 2 (Homo sapiens) (P36507 whole entry): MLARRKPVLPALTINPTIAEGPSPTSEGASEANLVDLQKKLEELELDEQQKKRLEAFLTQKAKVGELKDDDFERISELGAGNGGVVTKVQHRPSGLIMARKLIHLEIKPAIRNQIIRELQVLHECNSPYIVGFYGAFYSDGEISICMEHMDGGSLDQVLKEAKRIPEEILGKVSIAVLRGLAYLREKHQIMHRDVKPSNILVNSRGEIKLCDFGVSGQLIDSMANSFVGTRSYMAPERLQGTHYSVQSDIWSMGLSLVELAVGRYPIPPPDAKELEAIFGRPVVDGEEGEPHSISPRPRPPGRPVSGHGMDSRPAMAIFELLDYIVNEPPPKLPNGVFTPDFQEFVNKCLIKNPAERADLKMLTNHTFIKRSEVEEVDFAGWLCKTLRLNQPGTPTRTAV
Sequence of Serine/threonine-protein kinase 3 (Homo sapiens) (Q13188 whole entry): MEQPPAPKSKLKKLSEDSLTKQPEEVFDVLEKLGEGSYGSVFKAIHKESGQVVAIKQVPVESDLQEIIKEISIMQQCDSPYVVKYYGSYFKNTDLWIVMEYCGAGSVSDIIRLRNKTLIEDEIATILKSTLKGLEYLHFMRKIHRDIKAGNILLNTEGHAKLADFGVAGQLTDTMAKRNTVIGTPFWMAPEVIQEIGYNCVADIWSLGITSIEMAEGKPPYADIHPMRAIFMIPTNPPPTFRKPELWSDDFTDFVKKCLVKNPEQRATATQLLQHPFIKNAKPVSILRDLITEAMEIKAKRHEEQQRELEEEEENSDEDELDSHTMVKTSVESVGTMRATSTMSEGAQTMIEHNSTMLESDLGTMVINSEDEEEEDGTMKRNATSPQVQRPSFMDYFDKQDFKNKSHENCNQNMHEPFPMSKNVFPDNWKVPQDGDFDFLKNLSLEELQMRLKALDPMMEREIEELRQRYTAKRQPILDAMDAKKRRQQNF
Sequence of Mitogen-activated protein kinase 8 (Homo sapiens) (P45983 whole entry): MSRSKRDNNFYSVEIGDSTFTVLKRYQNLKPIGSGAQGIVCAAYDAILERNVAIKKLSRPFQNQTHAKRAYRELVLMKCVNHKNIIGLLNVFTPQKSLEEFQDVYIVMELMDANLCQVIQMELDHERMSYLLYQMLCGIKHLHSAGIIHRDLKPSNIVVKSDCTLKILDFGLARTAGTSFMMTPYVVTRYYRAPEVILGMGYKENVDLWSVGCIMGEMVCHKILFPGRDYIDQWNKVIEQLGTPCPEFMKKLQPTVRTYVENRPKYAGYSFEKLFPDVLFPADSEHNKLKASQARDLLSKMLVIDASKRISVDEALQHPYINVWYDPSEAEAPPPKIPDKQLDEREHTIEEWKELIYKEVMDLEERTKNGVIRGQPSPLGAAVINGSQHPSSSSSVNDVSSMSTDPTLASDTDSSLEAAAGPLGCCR
Sequence of Serine/threonine-protein kinase 16 (Homo sapiens) (O75716 whole entry): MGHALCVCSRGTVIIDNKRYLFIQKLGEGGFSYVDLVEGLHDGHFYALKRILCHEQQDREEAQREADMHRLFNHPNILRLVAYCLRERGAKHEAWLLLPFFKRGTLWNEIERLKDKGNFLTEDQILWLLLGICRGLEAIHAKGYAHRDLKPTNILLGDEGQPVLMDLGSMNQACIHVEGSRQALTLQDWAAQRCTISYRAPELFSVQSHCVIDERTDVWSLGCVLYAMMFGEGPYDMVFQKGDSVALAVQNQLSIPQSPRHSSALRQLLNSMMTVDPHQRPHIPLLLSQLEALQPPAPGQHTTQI

CN(C)CC#Cc1ccc(OCCCc2sc(N3CCc4cccc(C(=O)Nc5nc6ccccc6s5)c4C3)nc2C(=O)O)c(F)c1 [A-1155463]
Ki ([1]; read-out: Ki): 1.14 µM | Ki ([1]; read-out: pKi (converted)): 1.07 µM | Ki [2]: 0.794 µM | pKi [2]: 6.1 | residual activity [3]: 100% | residual activity [4]: 100% | residual activity [5]: 100% | residual activity [6]: 99% | residual activity [7]: 94% | residual activity [8]: 79% | residual activity [9]: 92% | residual activity [10]: 100% | residual activity [11]: 100% | residual activity [12]: 83% | residual activity [13]: 85% | residual activity [14]: 89% | residual activity [15]: 100% | residual activity [16]: 91% | residual activity [17]: 99% | residual activity [18]: 100% | residual activity [19]: 100% | residual activity [20]: 100% | residual activity [21]: 95% | residual activity [22]: 100% | residual activity [23]: 62% | residual activity [24]: 85% | residual activity [25]: 91% | residual activity [26]: 100% | residual activity [27]: 95% | residual activity [28]: 99% | residual activity [29]: 88% | residual activity [30]: 100% | residual activity [31]: 99% | residual activity [32]: 93% | residual activity [33]: 97% | residual activity [34]: 94% | residual activity [35]: 89% | residual activity [36]: 100% | residual activity [37]: 100% | residual activity [38]: 100% | residual activity [39]: 92% | residual activity [40]: 86% | residual activity [41]: 100% | inhibition [42]: 5.67% | inhibition [43]: 24.6% | inhibition [44]: 11.3%
